For data set [1], the system named is GADD45 promoter element DNA. Description: Quantitative DNA binding on the p53 protein microarray (33P-labelled duplex DNA). The note with it: 33P GADD45 duplex DNA; for DNA binding Bmax (% wild-type) / Kd: room temperature 30 min, confidence limits in parentheses; for GADD45 DNA binding, in words: p53 microarray.
The target of a further data set is T1, cytochrome P450 3A4 (Homo sapiens, UniProt P08684).
T1 construct: host or cells: microsomes
Description: BzRes oxidation and ketoconazole inhibition, cytochrome P450 3A4 microsomes in solution and encapsulated in agarose. Type of data set: biochemical. Conditions: standard error in parentheses.

A further data set deals with T2, 3A4*WT (Homo sapiens, UniProt P08684).
T2 construct: His-tag (concluded from Ni-NTA / Talon purification); biotinylated tag (BCCP; concluded from streptavidin detection); made in house; host or cells: E. coli XL-10 gold
T2 sequence (P08684 whole entry): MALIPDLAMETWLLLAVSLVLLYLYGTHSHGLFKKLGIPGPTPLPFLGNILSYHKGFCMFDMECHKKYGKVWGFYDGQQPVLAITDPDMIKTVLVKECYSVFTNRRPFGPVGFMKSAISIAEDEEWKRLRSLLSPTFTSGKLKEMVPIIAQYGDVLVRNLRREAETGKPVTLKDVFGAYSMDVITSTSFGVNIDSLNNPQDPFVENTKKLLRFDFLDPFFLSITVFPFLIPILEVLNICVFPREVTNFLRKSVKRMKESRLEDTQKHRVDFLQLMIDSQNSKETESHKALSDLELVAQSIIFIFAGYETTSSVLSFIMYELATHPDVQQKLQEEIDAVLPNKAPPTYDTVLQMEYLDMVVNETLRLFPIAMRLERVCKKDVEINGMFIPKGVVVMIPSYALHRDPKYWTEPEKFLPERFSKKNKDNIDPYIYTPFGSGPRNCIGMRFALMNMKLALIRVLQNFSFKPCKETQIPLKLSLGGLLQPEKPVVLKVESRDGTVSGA
Description: BzRes turnover and ketoconazole inhibition, cumene hydrogen peroxide activated purified P450 3A4 isoform. Type of data set: biochemical. Conditions: standard error in parentheses.

For a further data set, the target named is T3, 3A4*2 (Homo sapiens, UniProt P08684, S222P).
T3 construct: His-tag (concluded from Ni-NTA / Talon purification); biotinylated tag (BCCP; concluded from streptavidin detection); made in house; host or cells: E. coli XL-10 gold
T3 sequence (P08684 whole entry S222P): as the sequence (P08684 whole entry) above, with S222P counted along it
The data set is described as above. Conditions: standard error in parentheses. Type of data set: biochemical.

Another data set deals with T4, 3A4*3 (Homo sapiens, UniProt P08684, M445T).
T4 construct: His-tag (concluded from Ni-NTA / Talon purification); biotinylated tag (BCCP; concluded from streptavidin detection); made in house; host or cells: E. coli XL-10 gold
T4 sequence (P08684 whole entry M445T): as the sequence (P08684 whole entry) above, with M445T counted along it
The description is as above. Conditions: standard error in parentheses. Type of data set: biochemical.

The next data set addresses T5, 3A4*4 (Homo sapiens, UniProt P08684, I118V).
T5 construct: His-tag (concluded from Ni-NTA / Talon purification); biotinylated tag (BCCP; concluded from streptavidin detection); made in house; host or cells: E. coli XL-10 gold
The description is as above. Type of data set: biochemical. The note with it: standard error in parentheses.

A further data set has as its target T6, 3A4*5 (Homo sapiens, UniProt P08684, P218R).
T6 construct: His-tag (concluded from Ni-NTA / Talon purification); biotinylated tag (BCCP; concluded from streptavidin detection); made in house; host or cells: E. coli XL-10 gold
The data set is described as above. Type of data set: biochemical. The note with it: standard error in parentheses.

For the next data set, the target named is 3A4*15 (Homo sapiens, UniProt P08684, R162Q). Described as above.
3A4*15, sequence (P08684 whole entry R162Q): as the sequence (P08684 whole entry) above, with R162Q counted along it
Setting [2] is: Gel encapsulated (agarose) microsomes.
[3] abbreviates: 200 μM cumene hydrogen peroxide.
The mark [4] stands for this setting: normalised for P450 concentration and scaled to wild-type.

The text below walks through data of patent US10870925B2, “Arrays” (SENGENICS CORPORATION PTE LTD, priority 2001, dated 2020).

T1 sequence (P08684 whole entry): as the sequence (P08684 whole entry) above
T5 sequence (P08684 whole entry I118V): as the sequence (P08684 whole entry) above, with I118V counted along it
T6 sequence (P08684 whole entry P218R): as the sequence (P08684 whole entry) above, with P218R counted along it

Turning to “R181C: p53 mutant protein, His- and biotin-tagged, E. coli expressed [Mutation R181C]”, in data set [1], the “DNA binding Bmax (% wild-type)” value is on record as 88 (81-95) % wild-type; the dissociation constant Kd came to 11 nM; the “GADD45 DNA binding, in words” value is given as “wild-type binding”.
As to “S392A: p53 mutant protein, His- and biotin-tagged, E. coli expressed [Mutation S392A]”, in data set [1], the “DNA binding Bmax (% wild-type)” value is on record as 121 (107-136) % wild-type and the Kd was 10 nM.
Taken in the same sequence, the figures for “R280K: p53 mutant protein, His- and biotin-tagged, E. coli expressed [Mutation R280K]” were 54 (40-70) % wild-type and 21 nM.
As for “R181H: p53 mutant protein, His- and biotin-tagged, E. coli expressed [Mutation R181H]”, in data set [1], the “DNA binding Bmax (% wild-type)” value is given as 48 (40-57) % wild-type; the Kd worked out at 11 nM; the “GADD45 DNA binding, in words” value is “wild-type binding”.
Consider `O=c1ccc2nc3ccc(OCc4ccccc4)cc3oc-2c1` [BzRes, resorufin benzyl ether], for which the figures for the “BzRes Oxidation Vmax (% of soluble)” value at cytochrome P450 3A4 (setting [2]) and on cytochrome P450 3A4 (Soluble microsomes) were 50 (6) % of soluble and 100 (6) % of soluble, respectively. In addition, the Km is 49 µM on cytochrome P450 3A4 (setting [2]); 20 µM at cytochrome P450 3A4 (Soluble microsomes); 104 µM at 3A4*WT (setting [3]); 62 µM at 3A4*2 (setting [3]); 54 µM on 3A4*3 (setting [3]); 111 µM on 3A4*4 (setting [3]). In addition, the Km at 3A4*5 (setting [3]) amounted to 101 µM; on 3A4*15 (read-out: KM BzRes, 200 μM cumene hydrogen peroxide, standard error in parentheses), 89 µM. Also, the “Vmax BzRes” value at 3A4*WT (setting [4]) is given as 100 (34); at 3A4*2 (setting [4]) it was 65 (9); on 3A4*3 (setting [4]), 93 (24); on 3A4*4 (setting [4]), 69 (22); on 3A4*5 (setting [4]), 59 (16); at 3A4*15 (normalised for P450 concentration and scaled to wild-type, standard error in parentheses), 111 (23).
Consider “G325V: p53 mutant protein, His- and biotin-tagged, E. coli expressed [Mutation G325V]”, for which, in data set [1], the “DNA binding Bmax (% wild-type)” value is 73 (67-79) % wild-type; the dissociation constant Kd was 7 nM; the “GADD45 DNA binding, in words” value is recorded as “near wild-type affinity”.

Broadly, the Kd is the constant that tells how readily two partners part at equilibrium. The Km is the substrate concentration at which the rate is half of its maximum.
